The text below walks through data of patent US20100152206A1, “Bicyclic Dihydropyrimidines and Uses Thereof” (priority 2005, published 2010).

What is called IC50 is the concentration that inhibits the measured activity by half.

Test [1] addresses T1, Eg5 motor domain construct Eg5-367H (Homo sapiens, UniProt P52732).
T1 construct: the Eg5 motor domain construct Eg5-367H; His tag (read from the 'H' in the construct name; not spelled out for this construct)
T1 sequence (P52732 18-359 limits assumed): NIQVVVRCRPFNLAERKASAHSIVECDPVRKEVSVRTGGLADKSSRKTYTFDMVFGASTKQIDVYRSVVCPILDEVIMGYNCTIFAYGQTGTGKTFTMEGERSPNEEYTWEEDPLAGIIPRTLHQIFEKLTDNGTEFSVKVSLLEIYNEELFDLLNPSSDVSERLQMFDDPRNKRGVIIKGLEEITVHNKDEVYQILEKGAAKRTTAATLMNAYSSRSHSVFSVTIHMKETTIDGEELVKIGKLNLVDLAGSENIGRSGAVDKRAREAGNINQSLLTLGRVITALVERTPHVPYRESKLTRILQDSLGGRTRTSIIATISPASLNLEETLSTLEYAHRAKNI
Briefly: Activity of Eg5 inhibitors in pure protein assay (microtubule-stimulated ATP hydrolysis, malachite green phosphate detection). To be noted: microtubule-stimulated ATP hydrolysis by Eg5-367H, 25 degrees, 2 hours. The format is biochemical. As to the method:
We utilized a colorimetric phosphate detection assay (Funk, 2004) to measure microtubule-stimulated ATP hydrolysis by the Eg5 motor domain construct Eg5-367H (Maliga, 2002) as a function of drug concentration. Stocks solutions of each compound were prepared by serial dilution into DMSO and 0.1 microliters was added by pin transfer into KC25 buffer (20 mM PIPES-KOH, pH 6.9, 25 mM KCl, 2 mM MgC12) supplemented with 1 mM ATP-KOH, pH 6.9. KC25 supplemented with 10 micromolar taxol, 50 nanomolar Eg5-367H, and 1 micromolar taxol-polymerized microtubules was then added and the reaction incubated at 25 degrees for 2 hours. Malachite green assay solution (7% (w/v) perchloric acid, 0.0075% (w/v) malachite green oxalate, 0.2% (w/v) sodium molybdate dihydrate) was added to each reaction and the optical absorbance at 640 nm (640) was measured after a 30 minute incubation using a Wallac II automated plate reader. A640 as a function of! drug concentration (C) was fit to the equation A640=A0+B/(1+C/IC50) using Kaleidegraph 3.0, A0 is the basal A640, B is the maximum increase in A640, and IC50 is the drug concentration that inhibits half the Eg5 activity.

Test [2] has as its system Hela cells. As to the kind of experiment: cells. As to conditions: Homo sapiens, 20 h. The method, then: Hela cells were grown (Maliga, et. al. 2001) to 20% confluence in 384-well, clear-bottomed, black-walled NUNC plates and serial dilutions of prospective Eg5 inhibitors were added by pin transfer, as above [0277], incubated at 37° C. for 20 hours, fixed with TBS-0.1% Triton X100 supplemented with 4% formaldehyde, and stained stained for DNA, phosphorylated Ser10-Histone 3, and alpha-tubulin. Each drug concentration was inspected for the characteristic monoaster phenotype: condensed phospho-S10 positive chromosomes arranged in a rosette pattern around a circularly symmetric array of microtubules, and the absence of bi-polar mitotic spindles.

Turning to `O=C1NCCC2=C1C(c1cccc(O)c1)NC(=S)N2` (stereo not shown) [Entry 1], the IC50 stood at 1.5 µM in test [1] and 50 µM in test [2].

For `CCOC(=O)C1=C(CCN)NC(=S)NC1c1cccc(O)c1` (stereo not shown) [Entry 2], the results for the concentration for half-maximal inhibition (IC50) in test [1] and in test [2] were over 30 µM and over 300 µM, respectively.

Take `CCOC(=O)C1=C(CCNC(=O)OC(C)(C)C)NC(=S)NC1c1cccc(O)c1` (stereo not shown) [Entry 3]: the IC50 in test [1] was over 30 µM; in test [2], over 300 µM.

For `CCOC(=O)C1=C(CCO[Si](C(C)C)(C(C)C)C(C)C)NC(=S)NC1c1cccc(O)c1` (stereo not shown) [Entry 4], the IC50 was over 30 µM in test [1] and over 300 µM in test [2].

Take `O=C1OCCC2=C1C(c1cccc(O)c1)NC(=S)N2` (stereo not shown) [Entry 5]: the IC50 was determined as 0.5 µM in test [1] and 30 µM in test [2].

Take `CCOC(=O)C1=C(CN)NC(=S)NC1c1cccc(O)c1` (stereo not shown) [Entry 6]: the IC50 in test [1] came out at 12 µM; in test [2] it was 200 µM.

As to `CCOC(=O)C1=C(CO)NC(=S)NC1c1cccc(O)c1` (stereo not shown) [Entry 7], the IC50 in test [1] is 30 µM; in test [2] it was 300 µM.

Turning to `O=C1OCC2=C1C(c1cccc(O)c1)NC(=S)N2` (stereo not shown) [Entry 8], the IC50 in test [1] is 20 µM; in test [2], 300 µM.

On to `O=C1NCC2=C1C(c1cccc(O)c1)NC(=S)N2` (stereo not shown) [Entry 9], for which the half-inhibitory concentration (IC50) in test [1] was 12 µM; in test [2] it was over 300 µM.

As to `CCOC(=O)C1=C(C)NC(=S)NC1c1cccc(N)c1` (stereo not shown) [Entry 10], the values for the concentration for half-maximal inhibition (IC50) in test [1] and in test [2] were over 30 µM and over 300 µM, respectively.

Turning to `CCOC(=O)C1=C(C)NC(=S)NC1c1cccc(O)c1` (stereo not shown) [Monastrol, reference compound], the IC50 in test [1] stood at 12 µM; in test [2], 300 µM.
